Laboratory results from PubChem BioAssay (NCI).
“And” between values parts separate entries of the source, which are not always exact repeats. Equal entries are not always repeated.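 Grown in 96-well plates, cells were treated for 48 hours with each compound at five concentrations. Insufficient inhibition: endpoint recorded as highest concentration tested. GI50 marks 50% less growth. TGI: concentration producing complete growth inhibition.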

What was measured:
Experiment in all cases: inhibition of tumour cell growth, NCI panel, 48 h
[1] = test system: EKVX NSCLC
[2] = test system: HCT-116 colon
[3] = test system: HCT-15 colon
[4] = test system: HT29 colon
[5] = test system: K-562 leukemia
[6] = test system: LOX IMVI melanoma
[7] = test system: MOLT-4 leukemia
[8] = test system: SK-MEL-5 melanoma
[9] = test system: SN12C renal
[10] = test system: T-47D breast

SMILES | GI50 [1] [µM] | TGI [1] [µM] | GI50 [2] [µM] | TGI [2] [µM] | GI50 [3] [µM] | TGI [3] [µM] | GI50 [4] [µM] | TGI [4] [µM] | GI50 [5] [µM] | TGI [5] [µM] | GI50 [6] [µM] | TGI [6] [µM] | GI50 [7] | TGI [7] [µM] | GI50 [8] [µM] | TGI [8] [µM] | GI50 [9] [µM] | TGI [9] [µM] | GI50 [10] [µM] | TGI [10] [µM]
Cn1c(NCC(CN2CCCC2)OC(=O)c2ccccc2)cc(=O)n(C)c1=O (centres undefined) | > 100 | > 100 | > 100 | > 100 | > 100 | > 100 | > 100 | > 100 | > 100 | > 100 | > 100 | > 100 | > 100 µM | > 100 | > 100 | > 100 | > 100 | > 100 | > 100 | > 100
CCN1C(=O)N(CC)C2C1NC(=S)N2/N=C/C=C/c1ccccc1OC (centres undefined) | 0.0532 | > 100 | < 0.0182 | > 55.9 | 0.0341 | > 100 | 0.0361 | > 100 | 0.0276 | > 100 | 0.0342 | > 100 | 0.0427 µM | > 100 | 0.0305 | 0.158 | 0.0494 | > 100 | 34.6 | > 100
O=C(O)c1ccc(C(=O)O)c(C(=O)O)c1.[NH-]C1CCCCC1[NH-].[Pt+2] | 29.1 | 90.8 | 1.07 | 47.3 | 2.05 | 33.7 | 0.998 | 54.9 |  | 88.9 | 3.45 | 68.2 | 0.5 µM and 4.84 µM | 20 | 1.43 | 14.5 | 3.19 | 66.8 | 6.58 | 67.2
O=C1C=CC(=O)N1c1ccc(I)cc1 |  | 41.2 |  | 30.9 |  | 33.9 |  | 45.1 |  | 53.5 |  | 42.9 |  | 7.49 |  | 34.1 |  | 48 |  | 72.3
O=C(NS(=O)(=O)c1ccc(NC[C@H]2COCCO2)c([N+](=O)[O-])c1)c1ccc(N2CCN(CC3=C(c4ccc(Cl)cc4)CC4(CCC4)CC3)CC2)cc1Oc1cnc2[nH]ccc2c1 | 2.87 | 9.12 | 2.69 | 12.5 | 1.94 | 4.62 | 2.58 | 8.14 | 3.04 | > 100 | 1.85 | 3.63 | 1.36 µM | 5.22 | 1.6 | 2.97 | 1.91 | 3.72 | 2.24 | 8.99
O=C(O)c1ccc(Oc2nc3ccccc3s2)cc1 |  | > 100 |  | > 100 |  | > 100 |  | > 100 |  | > 100 |  | > 100 |  | > 100 |  | > 100 |  | > 100 |  | > 100
C/C(=N/NC(=S)N1CC2CCC(CC2)C1)c1cnccn1 |  | 12.3 |  | 12.3 |  | 16 |  | 12.2 |  | 0.472 |  | 11.4 |  | 1.32 |  | 2.32 |  | 14.4 |  | 13.3
NC(=N\N=C/c1ccc(Cl)cc1Cl)/C(N)=N\N=C/c1ccc(Cl)cc1Cl | 30.7 | > 100 | 1.19 | > 100 | > 100 | > 100 | > 100 | > 100 | 63.1 | > 100 | 25.5 | > 100 | > 100 µM | > 100 | > 100 | > 100 | 30.7 | > 100 | 1.35 | > 76.4
